The values below come from US7910747B2, “Phosphonate and phosphinate pyrazolylamide glucokinase activators” (Bristol-Myers Squibb Company, priority 2006, dated 2011).

In test [1] the target is T1, human glucokinase (GK) (Homo sapiens, UniProt P35557).
T1 construct: Full-length human hepatic GK (untagged) was expressed in BL21 STAR (DE3)pLysS cells; made in house; host or cells: E. coli BL21 STAR (DE3)pLysS
T1 sequence (P35557 1-466 isoform P35557-2): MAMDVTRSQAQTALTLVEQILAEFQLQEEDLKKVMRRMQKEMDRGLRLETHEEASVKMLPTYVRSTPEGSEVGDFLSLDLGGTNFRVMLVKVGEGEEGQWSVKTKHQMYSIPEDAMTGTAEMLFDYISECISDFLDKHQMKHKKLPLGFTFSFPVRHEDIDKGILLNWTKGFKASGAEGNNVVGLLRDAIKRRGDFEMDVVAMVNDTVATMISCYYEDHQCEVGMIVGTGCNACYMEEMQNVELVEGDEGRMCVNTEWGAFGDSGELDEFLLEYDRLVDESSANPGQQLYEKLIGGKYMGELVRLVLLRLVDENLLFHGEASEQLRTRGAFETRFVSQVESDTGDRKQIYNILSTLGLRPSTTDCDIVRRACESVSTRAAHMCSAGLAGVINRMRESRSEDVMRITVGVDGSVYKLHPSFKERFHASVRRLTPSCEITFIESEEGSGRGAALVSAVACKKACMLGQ
Kind of test: Glucokinase tandem enzymatic assay. The test is classed as biochemical. Particulars: 12 mM glucose; for EC50: EC50 = concentration to achieve 50% of full activation; for Emax: expressed as % of basal activation, EC50 could not be calculated from the activation curves, read-out: Maximal activation (%) Human Glucokinase @ 12 mM Glucose. The protocol:
Enzymatic activity of human glucokinase (GK) was measured by incubating GK, ATP, and glucose for discrete time periods followed by quenching with EDTA (ethylenediamine tetra-acetic acid). Relative amounts of product glucose-6-phosphate (G6P) were measured by then running a detection assay using G6P dehydrogenase and measuring the conversion of ThioNAD (thio-nicotinamide adenine dinucleotide) to ThioNADH (thio-dihydronicotinamide adenine dinucleotide) at a wavelength of 405 nm. This ‘uncoupled’ enzymatic reaction is denoted as the GK ‘tandem’ assay. Activation of GK by compounds can be assessed using this assay. The GK tandem assay protocol described below was followed using a range of activator compound concentrations from 0 to 100 μM at 5 and 12 mM of glucose. […] To initiate the GK reaction, magnesium-ATP (3 mM final concentration) was added to GK in buffer (final buffer conditions of 25 mM HEPES buffer, pH 7.1, containing 1 mM dithiothreitol and 5% DMSO). The total reaction volume was 20 μL. The reaction was allowed to proceed for ten minutes and was then quenched with 5 μL EDTA; 45 mM final). […] Absorbance was read, background glucose-6-phosphate levels were subtracted, after which activation was calculated as a percentage of control activity. Control activity was determined using GK in the presence of vehicle (DMSO), with background glucose-6-phosphate subtracted. Background glucose-6-phosphate was determined by pre-quenching GK with EDTA prior to reaction initiation with ATP.
Full-length human hepatic GK (untagged) was expressed in BL21 STAR (DE3)pLysS cells (Invitrogen) at 25° C. as described by Mookhtiar et al. (1). The protein was purified essentially as described by Lange (2) with a slight modification. […] The resulting pellet was resuspended in buffer, dialyzed, and applied directly to a Q-Sepharose (Sigma) column followed by elution with a linear 100-600 mM KCl gradient. GK containing fractions were pooled, dialyzed overnight vs. 25 mM Hepes pH 7.2/1 mM MgCl2/1 mM EDTA/0.1 M KCl/1 mM DTT, then dialyzed again with same buffer with 10% glycerol added.

The subject of test [2] is male DIO (diet-induced obese) C57BL/6J mice. Put plainly: Oral glucose tolerance test (OGTT) in DIO mice. Format: in vivo. The settings on record: 60 min before 2 g/kg oral glucose, DIO C57BL/6J mice; for Reduction in Glucose AUC at 30 mg/kg dose: 30 mg/kg oral. The protocol:
[…]. Mice were fasted overnight before use for experiments. A test compound or vehicle (either: 1) 40% PEG 400+10% Cremophore +50% water or 2) 10% dimethyl acetamide +10% ethanol +10% Cremophore +70% water) was given orally 60 min before oral administration of a glucose solution at a dose of 2 g/kg body weight (oral glucose tolerance test; OGTT). […].

Structures are written as SMILES.

In test [1], `CCOP(=O)(Cc1nc(NC(=O)c2cc(Oc3ccc(S(C)(=O)=O)cc3)cc(O[C@@H](C)COC)c2)sc1Cl)OCC` [Example 50] returned an EC50 of 22 nM. Take `CCOP(=O)(Cc1csc(NC(=O)Cc2ccc(OC)cc2OC)n1)OCC` [Example 74]: the Emax in test [1] was 142%. The molecule `CCOP(=O)(Cc1csc(NC(=O)c2cc(OC(C)C)cc(O[C@H]3CCN(S(C)(=O)=O)C3)c2)n1)OCC` [Example 113] showed a concentration giving a half-maximal response (EC50) in test [1] of 437 nM. Turning to `CCOP(=O)(/C=C/c1cnc(NC(=O)[C@H](CC2CCCC2)c2ccc(S(C)(=O)=O)cc2)s1)OCC` [Example 35], the Emax in test [1] is 133%. In turn, `CCOP(=O)(Cc1nc(NC(=O)c2cc(Oc3ccc(S(C)(=O)=O)cc3)cc(O[C@@H](C)COC)c2)sc1Br)OCC` [Example 51] registered an EC50 in test [1] of 15 nM. For `CCOP(=O)(Cn1ccc(NC(=O)c2cc(O[C@@H](C)COC)cc(O[C@@H](C)Cc3ccccc3)c2)n1)OCC` [Example 33], in test [1], it took 26 nM to reach a half-maximal effect (EC50).

For `CCOP(=O)(CS(=O)(=O)c1cnc(NC(=O)[C@H](CC2CCCC2)c2ccc(S(C)(=O)=O)cc2)s1)OCC` [Example 23], the Emax in test [1] was 150%. In test [1], `CCOP(=O)(Cc1csc(NC(=O)c2cc(OCCSC)cc(O[C@@H](C)COC)c2)n1)OCC` [Example 134] displayed an EC50 of 476 nM. As to `CCOP(=O)(Cc1ccc(NC(=O)c2cc(Oc3ccc(S(C)(=O)=O)cc3)cc(O[C@@H](C)COC)c2)nc1)OCC` [Example 29], the “Reduction in Glucose AUC at 30 mg/kg dose” value (from here on “Reduction … at 30 mg/kg dose”) in test [2] is given as 66-78%. This molecule had an EC50 in test [1] of 98 nM.

For the molecule `CCO[P@](C)(=O)Cc1csc(NC(=O)c2cc(Oc3ccc(S(C)(=O)=O)cc3)cc(O[C@@H](C)COC)c2)n1` (single isomer, unassigned) [Example 54], the “Reduction … at 30 mg/kg dose” value in test [2] is reported as 68-82%. A half-maximal effect in test [1] (EC50) was put at 49 nM. `CCOP(=O)(Cc1csc(NC(=O)c2cc(O[C@@H](C)COC)cc(O[C@@H](C)Cc3ccccc3)c2)n1)OCC` [Example 145]: the “Reduction … at 30 mg/kg dose” value in test [2] is given as 71%. Also, the half-maximal effective concentration (EC50) in test [1] came out at 24 nM. In the case of `CCOP(=O)(Cc1csc(NC(=O)c2cc(OC(C)C)cc(O[C@H]3CCN(C(C)=O)C3)c2)n1)OCC` [Example 112], the EC50 in test [1] turned out to be 428 nM. With `CCOP(=O)(Cc1csc(NC(=O)c2cc(Oc3ccc(S(C)(=O)=O)cc3)cc(O[C@@H](C)COC)c2)n1)OCC` [Example 37], in test [2], the “Reduction … at 30 mg/kg dose” value came to 88%. The molecule also yielded a concentration giving a half-maximal response (EC50) in test [1] of 34 nM. Turning to `CCOP(=O)(Cc1csc(NC(=O)c2nn(CC3CC3)c3cc(S(C)(=O)=O)ccc23)n1)OCC` [Example 86], the Emax in test [1] is 141%. As to `CCOP(=O)(Cn1ccc(NC(=O)c2cc(OCC(F)(F)c3ccccc3)cc(OC(C)C)c2)n1)OCC` [Example 122], the response in test [1] was half-maximal at 23 nM (EC50). The molecule `CCOP(=O)(Cc1csc(NC(=O)c2cc(OC(C)C)cc(O[C@@H]3CCN(C(=O)OC)C3)c2)n1)OCC` [Example 116] came in with a half-maximal effective concentration (EC50) in test [1] of 469 nM.

In test [1], `CCOP(=O)(Cc1csc(NC(=O)c2cc(O[C@@H](C)CO)cc(O[C@@H](C)Cc3ccccc3)c2)n1)OCC` [Example 137] had an EC50 of 21 nM. On the same count and under the same terms, for `CCOP(=O)(Cc1csc(NC(=O)c2cc(OCCCS(C)(=O)=O)cc(O[C@@H](C)COC)c2)n1)OCC` [Example 139] the value was 467 nM. On to `CCOP(=O)(Cn1ccc(NC(=O)c2cc(Oc3ccc(S(C)(=O)=O)cc3)cc(O[C@@H](C)COC)c2)n1)OCC` [Example 32], for which, in test [2] (30 μmol/kg oral), the “Reduction in Glucose AUC” value came out at 79% @ 30 μmol/kg. In addition, the 50% effective concentration (EC50) in test [1] is 65 nM.

Take `CCOP(=O)(Cc1cnc(NC(=O)[C@H](CC2CCOCC2)c2ccc(S(=O)(=O)C3CC3)cc2)cn1)OCC` [Example 44]: the “Reduction … at 30 mg/kg dose” value in test [2] is 62-80%. Further, it took 564 nM to reach a half-maximal effect in test [1] (EC50). As for `CCOP(=O)(Cc1csc(NC(=O)c2ccc3c(c2)OCCO3)n1)OCC` [Example 79], in test [1], the Emax was 133%. In test [1], `COC[C@H](C)Oc1cc(Oc2ccc(S(C)(=O)=O)cc2)cc(C(=O)Nc2nc(CP(C)(=O)O)cs2)c1` [Example 56] had an EC50 of 534 nM.

For `CCOP(=O)(CSc1cnc(NC(=O)[C@H](CC2CCCC2)c2ccc(S(C)(=O)=O)cc2)s1)OCC` [Example 22], the midpoint of the response in test [1], the EC50, lay at 402 nM. As to `CCOP(=O)(Cc1csc(NC(=O)c2cc(OCC(F)(F)c3ccccc3)cc(OC(C)C)c2)n1)OCC` [Example 123], in test [1], the Emax was 135%. The molecule `COC[C@H](C)Oc1cc(Oc2ccc(S(C)(=O)=O)cc2)cc(C(=O)Nc2nc(CP3(=O)OCCCO3)cs2)c1` [Example 169] registered an EC50 in test [1] of 9 nM. Turning to `CCOP(=O)(Cc1csc(NC(=O)c2cc(CN3CCOC3=O)cc(OC)c2)n1)OCC` [Example 65], the Emax in test [1] is 162%. As for `CCOP(=O)(Cc1csc(NC(=O)c2cc(OCC(O)c3ccccc3)cc(OC(C)C)c2)n1)OCC` (centres unmarked) [Example 121], in test [1], the Emax was 126%. For the molecule `CCOP(=O)(Cc1csc(NC(=O)c2cc(OC(C)C)cc(OC(C)C)c2)n1)OCC` [Example 148], the “Reduction … at 30 mg/kg dose” value in test [2] is recorded as 60%. Further, the EC50 in test [1] turned out to be 178 nM.

The EC50 is the concentration giving half of the maximal effect. A low value points to an effect from little substance.
